Measured values as given in ChEMBL document CHEMBL5331135, “Design, Synthesis, and Evaluation of Glucose Transporter Inhibitor-SN38 Conjugates for Targeting Colorectal Cancer” (J Med Chem, 2023).
pIC50: −log10 of the molar value.

Tests used:
HCT-116 = assay: Cytotoxicity against human HCT-116 cells incubated for 48 hrs by SRB assay; type: functional, cell-based; conditions: HCT-116, 48 h
HT-29 = assay: Cytotoxicity against human HT-29 cells incubated for 48 hrs by SRB assay; type: functional, cell-based; conditions: HT-29, 48 h
COLO 205 = assay: Cytotoxicity against human COLO 205 cells incubated for 48 hrs by SRB assay; type: functional, cell-based; conditions: COLO 205, 48 h
[1] = Toxicity in AOM/DSS-induced orthotopic CRC BALB/c mouse model assessed as body weight loss at 20 mg/kg, ip administered every other day for 2 weeks; type: organism-based; conditions: in vivo, 336 h
[2] = Toxicity in AOM/DSS-induced orthotopic CRC BALB/c mouse model assessed as body weight loss at 40 mg/kg, iv administered once every 2 days for 2 weeks; type: organism-based; conditions: in vivo, 336 h
[3] = Biodistribution in gastrointestinal tract of BALB/c mouse at 20 mg/kg, ip measured after 4 hrs by UHPLC-MS/MS analysis; type: ADME, organism-based; conditions: in vivo
[4] = Biodistribution in colorectal tumor site of BALB/c mouse at 20 mg/kg, ip measured after 4 hrs by UHPLC-MS/MS analysis; type: ADME, organism-based, Neoplasm; conditions: in vivo
[5] = Biodistribution in heart of BALB/c mouse at 20 mg/kg, ip measured after 4 hrs by UHPLC-MS/MS analysis; type: ADME, organism-based; conditions: in vivo
[6] = Biodistribution in liver of BALB/c mouse at 20 mg/kg, ip measured after 4 hrs by UHPLC-MS/MS analysis; type: ADME, organism-based; conditions: in vivo
[7] = Biodistribution in spleen of BALB/c mouse at 20 mg/kg, ip measured after 4 hrs by UHPLC-MS/MS analysis; type: ADME, organism-based; conditions: in vivo
[8] = Biodistribution in brain of BALB/c mouse at 20 mg/kg, ip measured after 4 hrs by UHPLC-MS/MS analysis; type: ADME, organism-based; conditions: in vivo
[9] = Prodrug conversion in heart of BALB/c mouse assessed as SN38 release at 20 mg/kg, ip measured after 4 hrs by UHPLC-MS/MS analysis; type: ADME, organism-based; conditions: in vivo
[10] = Prodrug conversion in liver of BALB/c mouse assessed as SN38 release at 20 mg/kg, ip measured after 4 hrs by UHPLC-MS/MS analysis; type: ADME, organism-based; conditions: in vivo
[11] = Prodrug conversion in spleen of BALB/c mouse assessed as SN38 release at 20 mg/kg, ip measured after 4 hrs by UHPLC-MS/MS analysis; type: ADME, organism-based; conditions: in vivo
[12] = Prodrug conversion in lung of BALB/c mouse assessed as SN38 release at 20 mg/kg, ip measured after 4 hrs by UHPLC-MS/MS analysis; type: ADME, organism-based; conditions: in vivo
[13] = Prodrug conversion in kidney of BALB/c mouse assessed as SN38 release at 20 mg/kg, ip measured after 4 hrs by UHPLC-MS/MS analysis; type: ADME, organism-based; conditions: in vivo
[14] = Prodrug conversion in stomach of BALB/c mouse assessed as SN38 release at 20 mg/kg, ip measured after 4 hrs by UHPLC-MS/MS analysis; type: ADME, organism-based; conditions: in vivo
[15] = Prodrug conversion in intestine of BALB/c mouse assessed as SN38 release at 20 mg/kg, ip measured after 4 hrs by UHPLC-MS/MS analysis; type: ADME, organism-based; conditions: in vivo
[16] = Prodrug conversion in tumor of BALB/c mouse assessed as SN38 release at 20 mg/kg, ip measured after 4 hrs by UHPLC-MS/MS analysis; type: ADME, organism-based, Neoplasm; conditions: in vivo
[17] = Prodrug conversion in brain of BALB/c mouse assessed as SN38 release at 20 mg/kg, ip measured after 4 hrs by UHPLC-MS/MS analysis; type: ADME, organism-based; conditions: in vivo
[18] = Drug concentration in heart of BALB/c mouse at 40 mg/kg, iv measured after 4 hrs by UHPLC-MS/MS analysis; type: ADME, organism-based; conditions: in vivo
[19] = Drug concentration in liver of BALB/c mouse at 40 mg/kg, iv measured after 4 hrs by UHPLC-MS/MS analysis; type: ADME, organism-based; conditions: in vivo
[20] = Drug concentration in spleen of BALB/c mouse at 40 mg/kg, iv measured after 4 hrs by UHPLC-MS/MS analysis; type: ADME, organism-based; conditions: in vivo
[21] = Drug concentration in kidney of BALB/c mouse at 40 mg/kg, iv measured after 4 hrs by UHPLC-MS/MS analysis; type: ADME, organism-based; conditions: in vivo
[22] = Drug concentration in stomach of BALB/c mouse at 40 mg/kg, iv measured after 4 hrs by UHPLC-MS/MS analysis; type: ADME, organism-based; conditions: in vivo
[23] = Drug concentration in intestine of BALB/c mouse at 40 mg/kg, iv measured after 4 hrs by UHPLC-MS/MS analysis; type: ADME, organism-based; conditions: in vivo
[24] = Drug concentration in tumor of BALB/c mouse at 40 mg/kg, iv measured after 4 hrs by UHPLC-MS/MS analysis; type: ADME, organism-based, Neoplasm; conditions: in vivo
[25] = Drug concentration in brain of BALB/c mouse at 40 mg/kg, iv measured after 4 hrs by UHPLC-MS/MS analysis; type: ADME, organism-based; conditions: in vivo
[26] = Prodrug conversion in tumor of BALB/c mouse assessed as SN38 release at 40 mg/kg, iv measured after 4 hrs by UHPLC-MS/MS analysis; type: ADME, organism-based, Neoplasm; conditions: in vivo
[27] = Prodrug conversion in liver of BALB/c mouse assessed as SN38 release at 40 mg/kg, iv measured after 4 hrs by UHPLC-MS/MS analysis; type: ADME, organism-based; conditions: in vivo

In the case of `CCc1c2c(nc3ccc(OC(=O)N4CCC(N5CCCCC5)CC4)cc13)-c1cc3c(c(=O)n1C2)COC(=O)[C@]3(O)CC` [IRINOTECAN], the pIC50 (HCT-116) was 5.43, the pIC50 (HT-29) was 5.07 and the pIC50 (COLO 205) was 5.00. For the same molecule, the Activity [1] was “Non-Toxic”, the Activity [2] was “Non-Toxic” and the Drug uptake [3] was “Active”. The Drug uptake [4] was “Active”, the Drug uptake [5] was “Active” and the Drug uptake [6] was “Active”. The Drug uptake [7] was “Active”, the Drug uptake [8] was “Active” and the Drug metabolism [9] was “Metabolite_Detected”. The Drug metabolism [10] was “Metabolite_Detected”, the Drug metabolism [11] was “Metabolite_Detected” and the Drug metabolism [12] was “Metabolite_Detected”. For the same molecule, the Drug metabolism [13] was “Metabolite_Detected”, the Drug metabolism [14] was “Metabolite_Detected” and the Drug metabolism [15] was “Metabolite_Detected”. The Drug metabolism [16] was “Metabolite_Detected”, the Drug metabolism [17] was “Metabolite_Detected” and the Ct [18] was “Active”. The Ct [19] was “Active”, the Ct [20] was “Active” and the Ct [21] was “Active”. For the same molecule, the Ct [22] was “Active”, the Ct [23] was “Active” and the Ct [24] was “Active”. For the same molecule, the Ct [25] was “Active”, the Drug metabolism [26] was “Metabolite_Detected” and the Drug metabolism [27] was “Metabolite_Detected”.
